The source of these data is patent US12646011B2, “Methods and nutritional formulations to increase the efficacy and reduce the side effects of cancer treatment” (UNIVERSITY OF SOUTHERN CALIFORNIA, priority 2009, dated 2026).

The subject of one data set is 4T1 breast cancer. The following applies: two fasting cycles; 20 days after the last treatment.
Data set [1] deals with breast cancer cells (4T1). The data set is described as follows: In vitro fasting (STS) and chemotherapy, MTT survival, 4T1. To be noted: for sensitization by serum from fasted mice: versus serum from mice fed ad lib, MTT. Format: cell-based, murine. Here is the method:
To model fasting in vitro, cancer cells were incubated in media containing serum collected from mice either fed ad lib or fasted for 48 hours. […] Because pronounced glucose and growth factor reduction (e.g., the 75% reduction in the growth factor IGF-I) are two key extracellular responses to fasting, cells were incubated in different glucose and serum concentrations based on blood glucose measurements from normally fed and fasted mice (FIG. 31), i.e., incubation in low glucose (0.5 g/L) with low serum (1% FBS), or normal glucose (1.0 and 2.0 g/L for human and murine cell lines respectively) with normal serum (10% FBS) for 24 hours before and also during drug treatment (FIG. 32).
4T1-luc murine breast cancer cells were purchased from SibIech (Brookfield, CT). B16-fluc murine melanoma cells were provided by Noah Craft (UCLA). GL26 murine glioma, U87-MG human glioblastoma cells were provided by Thomas Chen (USC). PC3 and 22RV1 human prostate cancer cells were provided by Pinchas Cohen (UCLA). MCF-7 and […] human breast cancer cells and HeLa human cervical cancer cells were provided by Amy Lee (USC). LOVO human colon cancer cells were provided by Darryl Shibata (USC). NXS2 and Neuro-2a murine neuroblastoma, human ACN and SH-SY5Y neuroblastoma, OVCAR human ovarian carcinoma, MZ-MEL human melanoma, A431 epidermoid carcinoma cells were routinely cultured in the Laboratory of Oncology of Gaslini Institute. 4T1 cells were stably transfected with LC3-GFP, which was a kind gift from Jae Jung at USC, for autophagy studies. All cells were routinely maintained in DMEM 10% FBS at 37° C., 5% CO2. To inhibit autophagy cells were treated with 5 μM chloroquine (CQ) for 48 hours during in vitro STS. To modulate HO-1 activity, 4T1 cells were treated with 10 μM hemin (Sigma) or 20 μM zinc protoporphyrin (ZnPP; Sigma) for 24 hours prior to and 24 hours during chemotherapy treatment.
In vitro chemotherapy was performed by treating cells in medium containing chemotherapy for 24 hours. Optimum drug doses were determined for each individual cell line. For in vivo studies, DXR was injected intravenously via lateral tail veins, and CP was injected intraperitoneally.
Cellular fasting was done by glucose and/or serum restriction which was based on blood glucose measurements in fasted and normally fed mice; the lower level approximated to 0.5 g/L. and the upper level to 2.0 g/L. For human cell lines, normal glucose was considered as 1.0 g/L. Cells were washed twice with PBS before changing to fasting medium.
Cytotoxicity was measured by the ability to reduce methylthiazolyldiphenyl-tetrazolium bromide (MTT). Briefly, MTT was prepared at 5 mg/ml in PBS, diluted to a final concentration of 0.5 mg/ml for assays, and incubated for 3-4 hours at 37° C. […] Survival was presented as percentage of MTT reduction level of treated cells to control cells. Absorbance was read at 570 nm using a microplate reader SpectraMax 250 (Molecular Devices) and SoftMax Pro 3.0 software (Molecular Devices).

In a further data set the test system is 4T1 breast cancer cells. To be noted: glucose 0.5 vs 2.0 g/L, 1% FBS.
In the next data set the test system is prostate adenocarcinoma. The data set is described as follows: PSA level, cases 3 and 7. Format: in vivo, human. Here is the method:
A person who was diagnosed in July of 2000 with bilateral prostate adenocarcinoma, Gleason score 7 and PSA level of 5.8 ng/ml. A prostatectomy performed in September of 2000 led to undetectable levels of PSA until January 2003 when it rose to 1.4 ng/ml. Leuprolide acetate together with bicalutamide and finasteride were prescribed. […] Different drugs including triptorelinpamoate, nilutamide, thalidomide, CP and ketoconazole were utilized to control the disease. In 2007 the patient's PSA level reached 9 ng/ml and new metastases were observed during a bone scan. […] After stopping the chemotherapy treatments, their PSA rose rapidly. DTX at 75 mg/m2 in a 3-weekly cycle was the regimen elected and once again the patient suffered significant side effects (FIG. 5). In June 2008, Chemotherapy stopped. The patient was enrolled in a phase III clinical trial with abiraterone acetate, a drug that can selectively block CYP17, a microsomal enzyme that catalyzes a series of reactions critical to nongonadal androgen biosynthesis (Derek Raghavan and Eric A. Klein J.C.O 2008). […] This time the patient opted to fast prior to chemotherapy. […] In agreement to the patient's experience, blood readouts were consistently stable and remained within normal range throughout the treatments (FIGS. 4A-G). During the last three cycles, besides fasting the patient applied testosterone (cream 1%) for five days prior to chemotherapy.
As a consequence the PSA level along with testosterone level increased dramatically.
A person who was diagnosed in July 1998 with prostate adenocarcinoma, Gleason score 8. […] In 1998, the patient received leuprolide acetate and bicalutamide for the first time. In September 1999, those drugs wore off and they were put on finasteride. […] They started the second cycle with leuprolide acetate and also received High Dose Rate (HDR) brachytherapy and external beam radiation with Intensity Modulated Radiation Therapy (IMRT). Complementary treatment with multiple drugs such as bicalutamide, triptorelinpamoate and nandrolone was applied in order to control the disease. However, their PSA level increased quickly each time the treatment was halted. […] The patient decided to fast 60-66 hours prior to and 8-24 hours followed chemotherapy (Table 3).

A short description of data set [2]: Self-reported side effects after chemotherapy (CTC-based survey). Format: in vivo, human. The protocol:
Ten cases are described in which patients diagnosed with a variety of malignancies have voluntarily fasted prior to (48-140 hours) and/or following (24-56 hours) chemotherapy. None of these 10 patients, who received an average of 4 cycles of chemotherapy in combination with fasting, reported significant side effects caused by the fasting itself other than hunger. Toxicity was graded based on the Common Toxicity Criteria (CTC) of the National Cancer Institute (NCI) and self-reported side-effects from five patients indicate that fasting may protect against fatigue, weakness, and gastrointestinal side effects.
Self-reported assessments of all 10 patients were obtained to evaluate the severity of the side effects experienced. Since many of the chemo toxic side effects are cumulative, survey data was compared, including all the combined fasting- and non-fasting associated chemotherapy side effects (FIG. 17A). Toxicity was graded based on the Common Toxicity Criteria of National Cancer Institute. Encouragingly, better self-reported health outcomes were addressed by all the patients even though chemo-fasting cycles were mostly carried out in the later portion of the therapy. Nausea, vomiting, diarrhea, abdominal cramps, and mouth sores were virtually absent from the reports of all 10 patients whenever chemo-fasting cycles were administered, whereas at least one of these symptoms was reported by 5 out of the 6 ad lib fed patients (FIG. 17A). The four patients that always fasted in combination with all the chemo-treatments reported low severity for the majority of the side effects (FIGS. 12, 13, 14, 16). Only mild weakness and hair loss were reported by multiple patients. For the 6 patients that received chemotherapy in association with both, fasting or ad lib diet, the severity of the self-reported side effects was determined by considering only the two closest cycle of chemotherapy in which the patient had fasted or not. There was a general and major reduction in the severity of many of the self-reported side effects in combination with fasting (FIG. 17B).

The test system of data set [3] is murine neuroblastoma (NXS2). The data set is described as follows: Metastatic mouse model of neuroblastoma NXS2, survival. Format: in vivo. The following applies: 16 mg/Kg.
In data set [4] the test system is B16 melanoma cells. The data set is described as follows: Comet assay, B16. Format: cell-based, murine. To be noted: glucose 0.5 vs 2.0 g/L, 1% FBS.
Protocol: (§3) To determine the mechanisms responsible for this STS-dependent sensitization, the effect of low glucose on DNA single and double strand breaks in cancer cells exposed to chemotherapy by the comet assay was studied.
(§4) Cells were diluted to 10^5/ml in culture medium (DMEM/F12 with 10% FBS), and treated with 50 μM DXR for 1 hour at 37° C. Cells were then washed once with ice cold PBS and subject to CometAssay (Trevigen, Inc, Gaithersburg, MD) according to the manufacturer's recommended procedure. Comet images were acquired with a Nikon Eclipse TE300 fluorescent microscope and analyzed with the Comet Score software (TriTek Corp., ver1.5). 100-300 cells were scored for each genotype/treatment group.
The test system of another data set is GL26 glioma cells. The data set is described as follows: Comet assay, GL26. Format: cell-based, murine. To be noted: glucose 0.5 vs 2.0 g/L, 1% FBS.
For data set [5], the system named is 17 different cancer cells. The data set is described as follows: STS sensitization panel of 17 cancer cell lines, MTT. Format: cell-based. The following applies: 0.5 g/L glucose, 1% FBS versus normal glucose, 10% FBS. The protocol: (§1) To model fasting in vitro, cancer cells were incubated in media containing serum collected from mice either fed ad lib or fasted for 48 hours. In agreement with results in mice, breast cancer cells (4T1) cultured in medium supplemented with serum from fasted mice were sensitized to both DXR and CP compared to the effect of incubation in serum from mice fed ad lib (FIG. 30). Because pronounced glucose and growth factor reduction (e.g., the 75% reduction in the growth factor IGF-I) are two key extracellular responses to fasting, cells were incubated in different glucose and serum concentrations based on blood glucose measurements from normally fed and fasted mice (FIG. 31), i.e., incubation in low glucose (0.5 g/L) with low serum (1% FBS), or normal glucose (1.0 and 2.0 g/L for human and murine cell lines respectively) with normal serum (10% FBS) for 24 hours before and also during drug treatment (FIG. 32). In agreement with the in vivo studies, glucose and serum restriction sensitized 15 out of 17 different cancer cells lines, including the murine melanoma (B16), glioma (GL26), and breast cancer (4T1) cells to DXR and/or CP (FIGS. 32-34). […]
(§2) Cytotoxicity was measured by the ability to reduce methylthiazolyldiphenyl-tetrazolium bromide (MTT). […] Absorbance was read at 570 nm using a microplate reader SpectraMax 250 (Molecular Devices) and SoftMax Pro 3.0 software (Molecular Devices).

The subject of data set [6] is B16 melanoma cells. The data set is described as follows: Metastatic mouse model of melanoma. Format: in vivo. The text has this: The effect of fasting on chemotherapy was studied in metastatic models generated by intravenous injections of murine breast cancer cells (4T1), melanoma cells (B16), and 2 neuroblastoma cell lines (NXS2 and Neuro-2a) in immunocompetent mice. Fasting potentiated chemotherapy and extended the survival of all mice models of metastatic cancer (FIGS. 24-28). In the metastatic model of melanoma, mice were sacrificed early to determine the effect of STS on metastases. […] For instance, lung metastases were found in 100% vs65% of mice that received DXR under normal feeding and fasting, respectively. In addition, unlike normally fed mice, metastases were not detected in the liver or spleen of fasted mice (FIG. 25).
Body weight was measured immediately before and after fasting.

A further data set relates to melanoma (B16) cells. The data set is described as follows: In vitro fasting (STS) and chemotherapy, MTT survival, B16. Format: cell-based, murine. The following applies: rhIGF-I; glucose 0.5 vs 2.0 g/L, 1% FBS; DXR 16 μM. The protocol: as §1, with “32).” for “32). In agreement with the in vivo studies, glucose and serum restriction sensitized 15 out of 17 different cancer cells lines, including the murine melanoma (B16), glioma (GL26), and breast cancer (4T1) cells to DXR and/or CP (FIGS. 32-34).”
In vitro chemotherapy was performed by treating cells in medium containing chemotherapy for 24 hours. Optimum drug doses were determined for each individual cell line. […]
as §2

[7] abbreviates: case 7, fasting 60-66 h prior, 8-24 h after.

Protocol for 4T1 breast cancer cells: as §3, §4
Protocol for GL26 glioma cells: as §3, §4

Regarding `O=P1(N(CCCl)CCCl)NCCCO1` (stereo not shown) [CP, cyclophosphamide], the “tumor size relative to CP treatment alone group” value in the data set with 4T1 breast cancer is on record as “less than half”. The “sensitization by serum from fasted mice” value in data set [1] is reported as “sensitized”. In addition, in the data set on 4T1 breast cancer cells, the “DNA damage when combined with STS” value is “synergistically increased DNA damage”.

`CC(=O)O[C@@]12CO[C@@H]1C[C@H](O)[C@@]1(C)C(=O)[C@H](O)C3=C(C)[C@@H](OC(=O)[C@H](O)[C@@H](NC(=O)OC(C)(C)C)c4ccccc4)C[C@@](O)([C@@H](OC(=O)c4ccccc4)[C@H]21)C3(C)C` [DTX, docetaxel]: the PSA level was 40.6 ng/mL in the data set with prostate adenocarcinoma (case 3, 25 mg/m2 weekly, no fasting) and “dropped immediately” with prostate adenocarcinoma (case 3, upon restarting chemo-fasting treatments, 75 mg/m2). In addition, the “PSA after 3 cycles of chemotherapy with fasting” value with prostate adenocarcinoma (case 3, reduced from 34.2, testosterone cream 1% applied before chemotherapy) was 6.43 ng/mL. In addition, the “PSA levels throughout the cycles” value in the data set with prostate adenocarcinoma (setting [7]) is listed as “consistent decreasing trend”. The self-reported side effects entry in [2] (case 3, 75 mg/m2 with fasting, versus previous ad-lib cycles) is “considerably lower side effects”; in data set [2] (case 3, chemotherapy cycles without fasting), “fatigue, weakness, metallic taste, dizziness, forgetfulness, short-term memory impairment and peripheral neuropathy”; in data set [2] (setting [7]), “almost non-existent except for mild vibratory sensation in their feet”.

Take `COc1cccc2c1C(=O)c1c(O)c3c(c(O)c1C2=O)C[C@@](O)(C(=O)CO)C[C@@H]3O[C@H]1C[C@H](N)[C@H](O)[C@H](C)O1` [DXR, doxorubicin]: the “Long-term survival (over 180 days)” value in [3] (2 cycles of fasting) came out at 42%. In addition, the mortality in [3] (ad lib group) was 100%. For the same compound, the “DNA damage when combined with STS” value is “synergistically increased DNA damage” in the data set on B16 melanoma cells [4], “synergistically increased DNA damage” with GL26 glioma cells and “additive” in the data set with GL26 glioma cells (listed as doxorubicin). In addition, the “cancer cell lines sensitized by STS” value in data set [5] is 15 out of 17. For the same compound, the “sensitization by serum from fasted mice” value in [1] was “sensitized”. Further, in the data set on B16 melanoma cells [6] (fasted mice), the “metastases in the liver or spleen” value was “not detected”. In addition, the “mice with lung metastases” value with B16 melanoma cells [6] (normal feeding) was found to be 100%.

For `C=CC1=C(C)c2cc3[n-]c(cc4nc(cc5[n-]c(cc1n2)c(C)c5C=C)C(C)=C4CCC(=O)O)c(CCC(=O)O)c3C.[Zn+2]` [ZnPP, zinc protoporphyrin], the “sensitivity to chemotherapy (CP)” value in data set [1] (HO-1 inhibitor, 20 μM, 24 h before and 24 h during CP) is given as “sensitized cancer cells to chemotherapy”.

With `CCN(CC)CCCC(C)Nc1ccnc2cc(Cl)ccc12` (stereo not shown) [chloroquine], in data set [1] (5 μM, 48 hours, glucose restriction in low serum), the “cell death on inhibition of autophagy during STS” value is “further increased cell death”.

“Bevacizumab: Bevacizumab added into the DTX treatment”: in the data set on prostate adenocarcinoma (case 3, added to weekly DTX treatment), the PSA result is given as “dropped significantly”.

For “IGF-I: rhIGF-I, growth factor added during glucose restriction”, the “effect on STS-dependent sensitization to DXR” value is listed as “reverses the sensitization” in the data set on melanoma (B16) cells and “reverses the sensitization” in data set [1] (rhIGF-I, glucose 0.5 vs 2.0 g/L, 1% FBS, DXR 16 μM).

For hemin, the “fasting-dependent sensitization to chemotherapy (CP)” value in data set [1] (HO-1 inducer, 10 μM, 24 h before and 24 h during CP) was “partially reversed”.

As usually defined, the mortality is the percentage killed. Low readings indicate a weak lethal effect, high ones a strong lethal effect.
